Assay results taken from PubChem BioAssay AID248 (DTP/NCI, 2004).
Several values for one entry are separate records, joined by “and”; a condition that tells them apart may be missing. Equal entries are not always repeated. Inconclusive results and toxic doses are left out. Rule as the data show it: active = T/C of 150% or more; inactive = T/C below 125%.

Test system: L1210 leukemia ip in BDF1 mice, survival T/C
Assay: NCI In Vivo Anticancer Drug Screen. Data for tumor model L1210 Leukemia (intraperitoneal) in B6D2F1 (BDF1) mice
Conditions: endpoint: mean survival time, higher = longer survival
Method in brief: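 Transplantable tumor model; survival measured in treated vs vehicle control mice. Value = treated/control.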

Measured: T/C

O=C1N[C@@H]([C@H]2CC[C@H](Cl)CN2)C(=O)N[C@H]1[C@H]1CC[C@H](Cl)CN1
inactive: dose: 0.05 mg/kg/injection, schedule: Q01DX009 (ip), vehicle: saline 98 % of control and 109 % of control | dose: 0.1 mg/kg/injection, schedule: Q01DX009 (ip), vehicle: saline 104 % of control and 113 % of control | dose: 0.2 mg/kg/injection, schedule: Q01DX009 (ip), vehicle: saline 104 % of control and 124 % of control | dose: 0.25 mg/kg/injection, schedule: Q03HX008 (ip), vehicle: saline 117 % of control | dose: 0.25 mg/kg/injection, schedule: Q03HX016 (ip), vehicle: saline 121 % of control | dose: 0.39 mg/kg/injection, schedule: Q01DX009 (ip), vehicle: water 104 % of control | dose: 0.4 mg/kg/injection, schedule: Q01DX009 (ip), vehicle: saline 107 % of control | dose: 0.78 mg/kg/injection, schedule: Q01DX009 (ip), vehicle: water 120 % of control | dose: 1.0 mg/kg/injection, schedule: Q01DX001 (ip), vehicle: other 103 % of control | dose: 1.0 mg/kg/injection, schedule: Q01DX009 (ip), vehicle: water 108 % of control | dose: 1.25 mg/kg/injection, schedule: Q01DX001 (ip), vehicle: saline 116 % of control and 122 % of control | dose: 2.0 mg/kg/injection, schedule: Q01DX001 (ip), vehicle: none 120 % of control | dose: 2.0 mg/kg/injection, schedule: Q01DX001 (ip), vehicle: other 124 % of control | dose: 2.0 mg/kg/injection, schedule: Q01DX001 (sc), vehicle: saline 114 % of control | dose: 2.0 mg/kg/injection, schedule: Q01DX009 (ip), vehicle: water 119 % of control | dose: 4.0 mg/kg/injection, schedule: Q01DX009 (oral), vehicle: saline 86 % of control | dose: 6.25 mg/kg/injection, schedule: Q01DX009 (ip), vehicle: water 97 % of control | dose: 8.0 mg/kg/injection, schedule: Q04DX003 (ip), vehicle: saline 103 % of control | dose: 9.1 mg/kg/injection, schedule: Q01DX009 (ip), vehicle: saline 86 % of control | dose: 16.0 mg/kg/injection, schedule: Q08DX002 (ip), vehicle: saline 90 % of control | dose: 32.0 mg/kg/injection, schedule: Q01DX001 (ip), vehicle: none 64 % of control | dose: 200.0 mg/kg/injection, schedule: Q01DX001 (ip), vehicle: water 115 % of control | dose: 125.0 micrograms/kg/injection, schedule: Q03HX024 (ip), vehicle: saline 121 % of control
active: dose: 0.5 mg/kg/injection, schedule: Q01DX009 (ip), vehicle: saline 150 % of control | dose: 0.5 mg/kg/injection, schedule: Q03HX016 (ip), vehicle: saline 158 % of control | dose: 0.8 mg/kg/injection, schedule: Q01DX009 (ip), vehicle: saline 190 % of control | dose: 1.0 mg/kg/injection, schedule: Q01DX001 (ip), vehicle: saline 173 % of control | dose: 1.0 mg/kg/injection, schedule: Q01DX009 (ip), vehicle: saline 161 % of control and 186 % of control | dose: 1.0 mg/kg/injection, schedule: Q01DX009 (sc), vehicle: saline 161 % of control | dose: 1.0 mg/kg/injection, schedule: Q03HX008 (ip), vehicle: saline 165 % of control | dose: 1.0 mg/kg/injection, schedule: Q03HX016 (ip), vehicle: saline 280 % of control | dose: 1.1 mg/kg/injection, schedule: Q01DX009 (ip), vehicle: saline 246 % of control | dose: 1.3 mg/kg/injection, schedule: Q01DX009 (ip), vehicle: saline 159 % of control | dose: 1.5 mg/kg/injection, schedule: Q01DX009 (ip), vehicle: saline 171 % of control and 189 % of control | dose: 1.56 mg/kg/injection, schedule: Q01DX009 (ip), vehicle: water 160 % of control | dose: 1.8 mg/kg/injection, schedule: Q01DX009 (ip), vehicle: saline 255 % of control | dose: 2.0 mg/kg/injection, schedule: Q01DX009 (ip), vehicle: saline 206 % of control and 290 % of control and 306 % of control | dose: 2.0 mg/kg/injection, schedule: Q01DX009 (oral), vehicle: saline 173 % of control | dose: 2.0 mg/kg/injection, schedule: Q01DX009 (sc), vehicle: saline 201 % of control | dose: 2.0 mg/kg/injection, schedule: Q03HX008 (ip), vehicle: saline 430 % of control | dose: 2.0 mg/kg/injection, schedule: Q03HX016 (ip), vehicle: saline 207 % of control | dose: 2.0 mg/kg/injection, schedule: Q04DX003 (ip), vehicle: saline 172 % of control | dose: 2.0 mg/kg/injection, schedule: Q08DX002 (ip), vehicle: saline 155 % of control | dose: 2.2 mg/kg/injection, schedule: Q01DX009 (ip), vehicle: saline 210 % of control and 297 % of control | dose: 2.6 mg/kg/injection, schedule: Q01DX009 (ip), vehicle: saline 206 % of control and 470 % of control | dose: 3.0 mg/kg/injection, schedule: Q01DX009 (ip), vehicle: saline 229 % of control | dose: 3.13 mg/kg/injection, schedule: Q01DX009 (ip), vehicle: water 213 % of control | dose: 4.0 mg/kg/injection, schedule: Q01DX001 (oral), vehicle: saline 176 % of control | dose: 4.0 mg/kg/injection, schedule: Q04DX003 (ip), vehicle: saline 208 % of control | dose: 4.0 mg/kg/injection, schedule: Q08DX002 (ip), vehicle: saline 213 % of control | dose: 5.0 mg/kg/injection, schedule: Q01DX001 (ip), vehicle: saline 165 % of control and 170 % of control | dose: 5.0 mg/kg/injection, schedule: Q01DX001 (ip), vehicle: water 222 % of control | dose: 6.5 mg/kg/injection, schedule: Q01DX001 (ip), vehicle: saline 273 % of control and 327 % of control | dose: 6.7 mg/kg/injection, schedule: Q01DX001 (ip), vehicle: saline 257 % of control | dose: 8.0 mg/kg/injection, schedule: Q01DX001 (ip), vehicle: none 207 % of control | dose: 8.0 mg/kg/injection, schedule: Q01DX001 (ip), vehicle: other 316 % of control | dose: 8.0 mg/kg/injection, schedule: Q01DX001 (oral), vehicle: saline 240 % of control | dose: 8.0 mg/kg/injection, schedule: Q01DX001 (sc), vehicle: saline 150 % of control | dose: 8.0 mg/kg/injection, schedule: Q01DX009 (ip), vehicle: water 279 % of control | dose: 9.7 mg/kg/injection, schedule: Q01DX001 (ip), vehicle: saline 151 % of control and 254 % of control | dose: 10.0 mg/kg/injection, schedule: Q01DX001 (ip), vehicle: water 278 % of control | dose: 11.6 mg/kg/injection, schedule: Q01DX001 (ip), vehicle: saline 234 % of control and 314 % of control | dose: 16.0 mg/kg/injection, schedule: Q01DX001 (ip), vehicle: none 155 % of control | dose: 16.0 mg/kg/injection, schedule: Q01DX001 (ip), vehicle: other 279 % of control | dose: 16.0 mg/kg/injection, schedule: Q01DX001 (oral), vehicle: saline 223 % of control | dose: 16.0 mg/kg/injection, schedule: Q01DX009 (ip), vehicle: water 383 % of control | dose: 400.0 mg/kg/injection, schedule: Q01DX001 (ip), vehicle: water 199 % of control | dose: 800.0 mg/kg/injection, schedule: Q01DX001 (ip), vehicle: water 158 % of control | dose: 500.0 micrograms/kg/injection, schedule: Q03HX024 (ip), vehicle: saline 165 % of control | dose: 1000.0 micrograms/kg/injection, schedule: Q03HX024 (ip), vehicle: saline 211 % of control

CC/C(C)=N/NS(C)(=O)=O
inactive: dose: 75.0 mg/kg/injection, schedule: Q01DX001 (ip), vehicle: other 103 % of control | dose: 150.0 mg/kg/injection, schedule: Q01DX001 (ip), vehicle: other 97 % of control

O=C(CCl)NCC(NC(=O)CCl)C(=O)O (stereo not given)
inactive: dose: 100.0 mg/kg/injection, schedule: Q04DX002 (ip), vehicle: saline 115 % of control | dose: 200.0 mg/kg/injection, schedule: Q04DX002 (ip), vehicle: saline 105 % of control | dose: 400.0 mg/kg/injection, schedule: Q04DX002 (ip), vehicle: saline 112 % of control
